This is an account of results in article PMC7177833, “2-Aminopyridine Analogs Inhibit Both Enzymes of the Glyoxylate Shunt in Pseudomonas aeruginosa” (International Journal of Molecular Sciences, 2020).

pKi: −log10 of the molar value. Like-named read-outs stand apart in the source and are kept apart here.

In one data set the test system is A-375 cells. The data set can be described thus: CellTiter-Glo luminescent cell viability assay (ATP), A-375. Format: cell-based, human. To be noted: IC50 cytotoxicity/IC50 P. aeruginosa growth inhibition in M9 acetate. As to the method:
(§1) The number of viable cells based on ATP quantification was determined using the CellTiter-Glo® luminescent cell viability assay (Promega, Madison, WI, USA, lot no. 0000200446). Briefly, cells were seeded into white, flat-bottomed, sterile 96-well plates (PerkinElmer, Beaconsfield, UK) and incubated for 24 h. For A-375 cells, we used 10,000 cells/well, and for H27 cells, we used 7500 cells/well. Test compounds were diluted in assay medium (Glutamax DMEM with 5% FBS (Gibco)) and added to the plates in two-fold dilutions starting at 100 µM. Negative controls (0.5% DMSO) and positive controls (camptothecin, 1.6 µM for the A-375 cells and 50 µM for the H27 cells) were also included, and the plates were incubated for an additional 48 h (95% humidity, 5% CO2 at 37 °C). After incubation, the cells were washed with PBS. To each well, we then added 50 µL of assay medium plus 50 µL of CellTiter-Glo® reagent. The samples were then shaken for 2 min at 100 rpm at 25 °C, followed by a further 10 min at 25 °C to stabilize the luminescence signal. Luminescence was measured using a VarioSkan LUX multimode microplate reader (Thermo Fisher Scientific, Vantaa, Finland).
On the technique in general: Cellular ATP, detected with luciferase, serves as a proxy for viable cell number.

Experiment in data set [1]: as above
Format: cell-based, human. To be noted: human; A-375 cells, 48 h, ATP luminescence; read-out: Cytotoxicity IC50 A-375. On the procedure: as §1

The target in a further data set is MSPa (Pseudomonas aeruginosa, UniProt Q9I636). Kind of data set: Kinetic mode of action on MSPa. Type of data set: biochemical. Also noted: made in house. On the procedure: The enzymatic activity of purified ICLPa and MSPa was assayed essentially as previously described. Compounds were added to the reaction mixtures (minus substrates) and incubated for 5 min at 37 °C. The enzyme concentration in the reaction mixtures was 170 nM for ICL and 25 nM for MS (based on the concentration of the monomer in each case). […] The reactions were initiated by the addition of pH-adjusted substrates, and the initial rates were recorded as A324 nm (for ICLPa) and A412 nm (for MSPa) using a Biospectrometer (Eppendorf, Stevenage, UK). Substrate turnover was calculated from the molar extinction coefficient of the assay products: Glyoxylate-phenylhydrazone (16,800/M/cm) for ICLPa and 2-nitro-5-thiobenzoic acid (14,150/M/cm) for MSPa.
Chain of MSPa (Q9I636 whole entry): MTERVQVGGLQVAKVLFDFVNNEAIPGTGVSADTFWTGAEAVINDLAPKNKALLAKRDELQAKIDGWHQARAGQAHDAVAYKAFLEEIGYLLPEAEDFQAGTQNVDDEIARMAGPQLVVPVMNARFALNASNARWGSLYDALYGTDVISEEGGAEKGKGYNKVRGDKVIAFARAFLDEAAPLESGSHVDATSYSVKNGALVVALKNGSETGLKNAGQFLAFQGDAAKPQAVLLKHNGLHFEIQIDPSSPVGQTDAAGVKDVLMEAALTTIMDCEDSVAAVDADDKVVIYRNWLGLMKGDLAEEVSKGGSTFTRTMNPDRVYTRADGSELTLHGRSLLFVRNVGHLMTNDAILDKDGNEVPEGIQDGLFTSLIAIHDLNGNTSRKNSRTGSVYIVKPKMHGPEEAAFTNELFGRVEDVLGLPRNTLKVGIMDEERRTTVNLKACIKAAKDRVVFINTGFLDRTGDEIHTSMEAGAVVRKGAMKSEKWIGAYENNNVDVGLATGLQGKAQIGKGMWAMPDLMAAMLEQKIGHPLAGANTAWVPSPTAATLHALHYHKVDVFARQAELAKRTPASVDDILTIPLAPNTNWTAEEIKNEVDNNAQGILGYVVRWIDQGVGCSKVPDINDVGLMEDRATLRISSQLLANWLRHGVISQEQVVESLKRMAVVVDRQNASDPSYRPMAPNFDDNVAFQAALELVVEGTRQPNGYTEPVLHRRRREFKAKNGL
The mode of action of SB002 on MSPa and ICLPa was determined by titrating the respective substrates of each enzyme in the presence of three fixed concentrations of SB002 (selected to lie around the measured IC50 value) and measuring the reaction rates as outlined in Section 4.3. Double-reciprocal plots and best-fit inhibition models (GraphPad Prism v. 7.04) were used to assess the mode of inhibition. Inhibition constants were calculated using GraphPad Prism v. 7.04 (GraphPad Software, Inc., La Jolla, CA, USA). Each data point represents the mean ± SD for three independent replicates.

For another data set, the system named is P. aeruginosa. The arrangement: method as in Fahnoe et al. [13]. To be noted: ref Fahnoe et al. [13], cited from earlier work.

One may read the IC50 as the concentration that gives 50% inhibition. Consider `CC(C)(C)OC(=O)/N=C(\NC(=O)OC(C)(C)C)Nc1cc(C#N)ccn1` [SB023], for which the “Therapeutic index A-375” value with A-375 cells is 11.95. Also, in data set [1], the half-maximal inhibitory concentration (IC50) at 48 h came to 106 µM.
As a reminder, the pKi is the negative decadic logarithm of the Ki, by convention in mol/L. Usually MIC stands for the lowest concentration that inhibits growth of the organism. Take `CC(C)(C)OC(=O)/N=C(\NC(=O)OC(C)(C)C)Nc1cc(Cl)ccn1` [SB002]: the negative-log Ki (pKi) on MSPa was 5.35. The “Mode of inhibition of MSPa with respect to acetyl-CoA” value on MSPa (acetyl-CoA varied, saturating (200 µM) glyoxylate) is on record as “competitive mode of inhibition”. In addition, at MSPa (glyoxylate varied, 200 µM acetyl-CoA), the “Ki’ (binding to the ES complex), MSPa” value came to 3.9 µM. At MSPa (glyoxylate varied, saturating (200 µM) acetyl-CoA), the “Mode of inhibition of MSPa with respect to glyoxylate” value was “uncompetitive inhibition at the lower inhibitor concentrations tested, and noncompetitive inhibition at the higher concentration of inhibitor”. The results for the minimal inhibitory concentration (MIC) in the data set on P. aeruginosa (conversion of 8 μg/mL) and in the data set with P. aeruginosa were 21.6 µM and 8 µg/mL, respectively.
